Data set [1] relates to LIM2537 human colon carcinoma cell line. Nature of the data set: MTS assay using LIM2537 human colon carcinoma cell line. The following applies: 96 h, LIM2537, 4 days incubation, read-out: IC50 Range. The class given is cell-based. How it is done: • Cells plated at […] in 100 μl medium+5% FCS (+Adds^1): • Cells incubated overnight: • Titrate inhibitors in a fresh plate in 150 μl medium • Transfer 100 μl titrated compounds to matching wells of the cell plate. • Incubate a further 4 days: • Add 10 μl MTS^2 or MTT^3 for 1.5 to 2 hours and read on Multiscanner (wavelengths 492/690) ^1 Additives for culture of LIM cell lines: 10 μM thioglycerol, 0.025 U/ml insulin, 1 μg/ml hydrocortisone. ^2 3-(4,5-dimethylthiazol-2-yl)-5-(3-carboxymethoxyphenyl)-2-(4-sulfophenyl)-2H-tetrazolium. ^3 3-(4,5-Dimethylthiazol-2-yl)-2,5-diphenyltetrazolium bromide
• LIM2537 human colon carcinoma cell line, grown in RPMI+Adds^1+5% FCS
Cells are trypsinized and washed ×2 in medium+5% FCS and plate out at 10^4 cells per well in 100 μl.
Incubate plates o/n 37° C.+5%-10% CO2 incubator.
Inhibitors are dissolved in DMSO to make 10 mM stocks and titrated in a 96 well plate in duplicate to use as the stock for the test plate. Titration range from 40 μM down to […] in ½ dilutions and 100 μl of each dilution transferred to the appropriate wells of the test plate that contains the cells (also in 100 μl) which results in the final concentration of the inhibitors being 20 μM down to 0.01 μM across the rows in duplicate. Three inhibitors are tested per plate (Rows A-F).
Each plate has the following: • Rows A,B: Inhibitor 1 dilutions, 200 μl per well • Rows C,D: Inhibitor 2 dilutions, 200 μl per well • Rows E,F: Inhibitor 3 dilutions, 200 μl per well • Control row G1-6: Medium+5% FCS (for maximum growth) • Control row G7-12: Taxol (250 nM for maximal inhibition) • Control row H: Remove medium from cells and replace with 200 μl Serum Free medium for serum free growth rate.
Incubate plates for 4 days in incubator. Process with MTS or MTT as outlined below.
To each well add 10 μl MTS (Sigma) solution. Incubate MTS for 1.5 to 2 hours and MTT for 4 hours. Stop reaction by adding 10 μl 10% SDS to each well. Read on Multiscan (492/690) plate reader, plot colour change versus concentration of inhibitor to establish the IC50.

The next data set has as its system LIM1215. The experiment in a line: Antimitotic effects (G2/M cell cycle block, DNA staining, ModFit) on LIM1215. The settings on record: for % of Taxol (proportion of cells in G2M test/proportion of cells in G2M Taxol): 24 hrs, standard 1 μM Taxol; for IC50: Homo sapiens, inhibitors added to cells in log-growth for 24 hrs, read-out: IC50 for progression through the cell cycle. It is filed as cell-based, human. The text has this:
(§1) For the initial studies two colon carcinoma cell lines (LIM1215 and SW480) and two breast cancer cell lines (MDA-MB-231 and MCF-7) were used. Taxol was used as comparator in these experiments (Table 1).

The next data set has as its system SW480. Nature of the data set: Antimitotic effects (G2/M cell cycle block, DNA staining, ModFit) on SW480. The class given is cell-based, human. The settings on record: for % of Taxol (proportion of cells in G2M test/proportion of cells in G2M Taxol): 24 hrs, standard 1 μM Taxol; for IC50: Homo sapiens, inhibitors added to cells in log-growth for 24 hrs, read-out: IC50 for progression through the cell cycle.
Excerpt: as §1

The test system of the next data set is MDA-MB-231. The experiment in a line: Antimitotic effects (G2/M cell cycle block, DNA staining, ModFit) on MDA-MB-231. The class given is cell-based, human. The settings on record: for % of Taxol (proportion of cells in G2M test/proportion of cells in G2M Taxol): 24 hrs, standard 1 μM Taxol; for IC50: Homo sapiens, inhibitors added to cells in log-growth for 24 hrs, read-out: IC50 for progression through the cell cycle.
Excerpt: as §1

Another data set concerns MCF-7. Nature of the data set: Antimitotic effects (G2/M cell cycle block, DNA staining, ModFit) on MCF-7. It is filed as cell-based, human. The following applies: for % of Taxol (proportion of cells in G2M test/proportion of cells in G2M Taxol): 24 hrs, standard 1 μM Taxol; for IC50: Homo sapiens, MCF7, inhibitors added to cells in log-growth for 24 hrs, read-out: IC50 for progression through the cell cycle.
Excerpt: as §1

The next data set concerns tubulin. Nature of the data set: Tubulin polymerization in intact cells (soluble vs polymerized tubulin, immunoblot). The following applies: LIM 1215 cells, NP-40 lysis, immunoblot with β-tubulin antibodies. The class given is cell-based.
A short description of data set [2]: Dose escalation in mice (tolerability and toxicity). The settings on record: C57Bl/6 mice, subcutaneous in DMSO, sacrificed 24 hrs post-injection. The class given is in vivo. On the procedure:
Compound 1 was initially tested for tolerability and toxicity in mice. C57Bl/6 mice (aged 8-12 weeks) were injected subcutaneously with escalating doses of Compound 1 in a constant volume of DMSO. Mice were sacrificed 24 hrs post-injection. There were no adverse effects of doses up to 80 mg/kg within this time-frame. Thus the compound is well tolerated at doses that far exceed the IC50 observed “in vitro”.
These minor skin lesions healed readily within 2-3 days.

Where only a bound is given, the exact number is not on record here.

Method for tubulin: Equal volumes of supernatant and resuspended insoluble material were analyzed by SDS/PAGE and immunoblotting with antibodies to β-tubulin. S=soluble and P=polymerized tubulin. […] To monitor the effects of triazines on tubulin, the present inventors tested tubulin polymerization in intact cells following exposure to the drug. Cells treated with Taxol or with compound 3 were lysed in hypotonic buffer containing 0.5% NP-40 and the cellular extracts were centrifuged at high speed. Polymerized tubulin is detergent-insoluble: thus after this treatment soluble tubulin is recovered in the supernatants (S), and polymerized tubulin in the cellular pellets (P). The relative proportion of the two forms was monitored by SDS/PAGE and immunoblotting with tubulin-specific antibodies.

For the molecule `COc1ccc(CNc2nc(NCc3cccc(N4CCCCC4)c3)nc(NN3CC(=O)NC3=O)n2)cc1` [Compound 20, 1-((4-((4-methoxybenzyl)amino)-6-((3-(piperidin-1-yl)benzyl)amino)-1,3,5-triazin-2-yl)amino)imidazolidine-2,4-dione], the IC50 in data set [1] was in the range of 100 to 1000 nM.
As for `COc1ccc(CNc2nc(NCc3ccc(OCCN4CCOCC4)cc3)nc(NN3CC(=O)NC3=O)n2)cc1` [Compound 24, 1-((4-((4-methoxybenzyl)amino)-6-((4-(2-morpholinoethoxy)benzyl)amino)-1,3,5-triazin-2-yl)amino)imidazolidine-2,4-dione], in data set [1], the IC50 fell in the range of 100 to 1000 nM.
Same read-out and setting: under `COc1ccc(CNc2nc(NCc3ccc(CN4CCN(C)CC4)cc3)nc(NN3CC(=O)NC3=O)n2)cc1` [Compound 16, 1-((4-((4-methoxybenzyl)amino)-6-((4-((4-methylpiperazin-1-yl)methyl)benzyl)amino)-1,3,5-triazin-2-yl)amino)imidazolidine-2,4-dione] stands no more than 100 nM.
Turning to `CC(=O)O[C@H]1C(=O)[C@@]2(C)[C@H]([C@H](OC(=O)c3ccccc3)[C@]3(O)C[C@H](OC(=O)[C@H](O)[C@@H](NC(=O)c4ccccc4)c4ccccc4)C(C)=C1C3(C)C)[C@]1(OC(C)=O)CO[C@@H]1C[C@@H]2O` [Taxol, reference compound], the “% of Taxol (proportion of cells in G2M test/proportion of cells in G2M Taxol)” value in the data set with LIM1215, with SW480, in the data set with MDA-MB-231 and in the data set with MCF-7 was 100% each time. Further, the IC50 with LIM1215 was 10 nM; in the data set with SW480 it was 8 nM; in the data set on MDA-MB-231, 8 nM; with MCF-7, 8 nM. Moreover, in the data set on tubulin, the “Stabilization of tubulin in treated cells (soluble vs polymerized)” value is “strongly stabilized tubulin in a dose-dependent manner”.
Turning to `COc1ccc(CNc2nc(NCc3ccc(N4CCOCC4)cc3)nc(NN3CC(=O)NC3=O)n2)cc1` [Compound 18, 1-((4-((4-methoxybenzyl)amino)-6-((4-morpholinobenzyl)amino)-1,3,5-triazin-2-yl)amino)imidazolidine-2,4-dione], in data set [1], the half-inhibitory concentration (IC50) was 100 to 1000 nM.
Same read-out and setting: the value for `COc1ccc(CNc2nc(NCc3cccc(N4CCN(C)CC4)c3)nc(NN3CC(=O)NC3=O)n2)cc1` [Compound 22, 1-((4-((4-methoxybenzyl)amino)-6-((3-(4-methylpiperazin-1-yl)benzyl)amino)-1,3,5-triazin-2-yl)amino)imidazolidine-2,4-dione] was greater than 10000 nM; that for `COc1ccc(CNc2nc(NCc3ccc(CN4CCCCC4)cc3)nc(NN3CC(=O)NC3=O)n2)cc1` [Compound 13, 1-((4-((4-methoxybenzyl)amino)-6-((4-(piperidin-1-ylmethyl)benzyl)amino)-1,3,5-triazin-2-yl)amino)imidazolidine-2,4-dione] was 100 to 1000 nM.
Turning to `COc1ccc(CNc2nc(NCc3ccc(OC)cc3)nc(NN3CC(=O)NC3=O)n2)cc1` [Compound 1, 1-[4,6-Bis-(4-methoxybenzylamino)-{1,3,5}-triazin-2-yl-amino]-imidazolidine-2,4-dione], the “% of Taxol (proportion of cells in G2M test/proportion of cells in G2M Taxol)” value in the data set with LIM1215 amounted to 105%; in the data set on SW480, 120%; in the data set on MDA-MB-231, 94%; in the data set with MCF-7 it was 108%. The IC50 with LIM1215 came to 70 nM; in the data set on SW480 it was 50 nM; with MDA-MB-231, 13 nM; in the data set on MCF-7, 9 nM. In addition, the “Doses with no adverse effects” value in data set [2] is given as “up to 80 mg/kg”.
On to `CCN(CC)CCOc1ccc(CNc2nc(NCc3ccc(OC)cc3)nc(NN3CC(=O)NC3=O)n2)cc1` [Compound 23, 1-((4-((4-(2-(diethylamino)ethoxy)benzyl)amino)-6-((4-methoxybenzyl)amino)-1,3,5-triazin-2-yl)amino)imidazolidine-2,4-dione], for which, in data set [1], the IC50 was in the range of 1000 to 10000 nM.
On to `COc1ccc(CNc2nc(NCc3ccc(OC)cc3)nc(NC3NC(=O)N(C)C3=O)n2)cc1` (centres unmarked) [Compound 3, 5-[4,6-Bis-(4-methoxy-benzylamino)-[1,3,5]-triazin-2-ylamino]-3-methyl-imidazolidine-2,4-dione], for which the “% of Taxol (proportion of cells in G2M test/proportion of cells in G2M Taxol)” value with LIM1215 worked out at 108%; with SW480, 106%; in the data set on MDA-MB-231, 93%; in the data set on MCF-7, 102%. Besides, the IC50 amounted to 3000 nM in the data set with LIM1215, 1450 nM with SW480, 3000 nM with MDA-MB-231 and 450 nM in the data set with MCF-7.
`COc1ccc(CNc2nc(NCc3cccc(N4CCOCC4)c3)nc(NN3CC(=O)NC3=O)n2)cc1` [Compound 21, 1-((4-((4-methoxybenzyl)amino)-6-((3-morpholinobenzyl)amino)-1,3,5-triazin-2-yl)amino)imidazolidine-2,4-dione]: in data set [1], the IC50 was 1000 to 10000 nM.
Still for that read-out and setting: the value for `COc1ccc(CNc2nc(NCc3ccc(N4CCN(C)CC4)cc3)nc(NN3CC(=O)NC3=O)n2)cc1` [Compound 19, 1-((4-((4-methoxybenzyl)amino)-6-((4-(4-methylpiperazin-1-yl)benzyl)amino)-1,3,5-triazin-2-yl)amino)imidazolidine-2,4-dione] was 100 to 1000 nM; that for `COc1ccc(CNc2nc(NCc3ccc(N4CCCCC4)cc3)nc(NN3CC(=O)NC3=O)n2)cc1` [Compound 17, 1-((4-((4-methoxybenzyl)amino)-6-((4-(piperidin-1-yl)benzyl)amino)-1,3,5-triazin-2-yl)amino)imidazolidine-2,4-dione] was no more than 100 nM; that for `CCN(CC)Cc1ccc(CNc2nc(NCc3ccc(OC)cc3)nc(NN3CC(=O)NC3=O)n2)cc1` [Compound 15, 1-((4-((4-((diethylamino)methyl)benzyl)amino)-6-((4-methoxybenzyl)amino)-1,3,5-triazin-2-yl)amino)imidazolidine-2,4-dione] was 1000 to 10000 nM.
Same read-out and setting: the value for `COc1ccc(CNc2nc(NCc3ccc(CN4CCOCC4)cc3)nc(NN3CC(=O)NC3=O)n2)cc1` [Compound 14, 1-((4-((4-methoxybenzyl)amino)-6-((4-(morpholinomethyl)benzyl)amino)-1,3,5-triazin-2-yl)amino)imidazolidine-2,4-dione] was greater than 10000 nM.

The record behind these values is patent publication US8835629B2, “Anti-cancer agents” (The Walter and Eliza Hall Institute of Medical Research, priority 2010, dated 2014).
